Measured values as given in ChEMBL document CHEMBL4627315, “Promising antifungal agents: A minireview” (2020).
Converted amounts (≈) assume the structure as drawn.

Columns and labels:
[1] = test system: Saccharomyces cerevisiae; test: Antifungal activity against Saccharomyces cerevisiae; type: functional
[2] = test system: Cryptococcus neoformans; test: Antifungal activity against Cryptococcus neoformans; type: functional
[3] = test system: Fusarium graminearum; test: Antifungal activity against Fusarium graminearum; type: functional
[4] = test system: Aspergillus niger; test: Antifungal activity against Aspergillus niger assessed as zone of inhibition by serial dilution and disc diffusion method; type: functional
[5] = test system: Aspergillus flavus; test: Antifungal activity against Aspergillus flavus assessed as zone of inhibition by serial dilution and disc diffusion method; type: functional
[6] = test system: Candida albicans; test: Antifungal activity against Candida albicans assessed as zone of inhibition by serial dilution and disc diffusion method; type: functional
[7] = test system: Rhizopus; test: Antifungal activity against Rhizopus assessed as zone of inhibition by serial dilution and disc diffusion method; type: functional
[8] = test system: Aspergillus niger; test: Potency index, ratio of Amphotericin B IZ to test compound IZ for Aspergillus niger assessed as zone of inhibition by serial dilution and disc diffusion method; type: functional
[9] = test system: Aspergillus flavus; test: Potency index, ratio of Amphotericin B IZ to test compound IZ for Aspergillus flavus assessed as zone of inhibition by serial dilution and disc diffusion method; type: functional
[10] = test system: Candida albicans; test: Potency index, ratio of Amphotericin B IZ to test compound IZ for Candida albicans assessed as zone of inhibition by serial dilution and disc diffusion method; type: functional
[11] = test system: Rhizopus; test: Potency index, ratio of Amphotericin B IZ to test compound IZ for Rhizopus assessed as zone of inhibition by serial dilution and disc diffusion method; type: functional
[12] = test system: Candida albicans; test: Antifungal activity against Candida albicans assessed as zone of inhibition at 25 to 100 ug/ml; type: functional
[13] = test system: Cryptococcus gattii; test: Antifungal activity against Cryptococcus gattii; type: functional, Cryptococcus gattii VGI

SMILES | inhibition zone (IZ) [4] | inhibition zone (IZ) [5] | inhibition zone (IZ) [6] | inhibition zone (IZ) [7] | Ratio [8] | Ratio [9] | Ratio [10] | Ratio [11] | further results
CCCCCCCCO[C@H]1[C@H](N)[C@@H](O)[C@@H](O[C@@H]2[C@@H](O)[C@H](O[C@H]3O[C@H](CN)[C@@H](O)[C@H](O)[C@H]3N)[C@@H](N)C[C@H]2N)O[C@@H]1C | – | – | – | – | – | – | – | – | MIC [1]: 4 to 31.3 µg/mL (≈ 6.9 to 54 µM); MIC [2]: 3.9 to 7.8 µg/mL (≈ 6.73 to 13.5 µM); MIC [3]: 7.8 µg/mL (≈ 13.5 µM)
Cc1nc(-c2ccc(F)c(Br)c2)n(CCN2CCNCC2)c1C | 18 - 21 mm | 18 - 21 mm | 18 - 21 mm | 18 - 21 mm | 1.5 - 2 | 1.5 - 2 | 1.5 - 2 | 1.5 - 2 | –
Cc1nc(-c2ccc(Cl)cc2)n(CCN2CCNCC2)c1C | 16 - 20 mm | 16 - 20 mm | 16 - 20 mm | 16 - 20 mm | 1.5 - 2 | 1.5 - 2 | 1.5 - 2 | 1.5 - 2 | –
Cc1nc(-c2cccs2)n(CCN2CCNCC2)c1C | 16 - 200 mm | 16 - 200 mm | 16 - 200 mm | 16 - 200 mm | – | – | – | – | –
Cc1nc(-c2ccc(F)cc2)n(CCN2CCNCC2)c1C | 16 - 22 mm | 16 - 22 mm | 16 - 22 mm | 16 - 22 mm | 1.5 - 2 | 1.5 - 2 | 1.5 - 2 | 1.5 - 2 | –
C[C@@H]1[C@H](O)[C@@H](C)/C=C/C=C/C=C/C=C/C=C/C=C/C=C/[C@H](O[C@@H]2O[C@H](C)[C@@H](O)[C@H](N)[C@@H]2O)C[C@@H]2O[C@](O)(C[C@@H](O)C[C@@H](O)[C@H](O)CC[C@@H](O)C[C@@H](O)CC(=O)O[C@H]1C)C[C@H](O)[C@H]2C(=O)O [AMPHOTERICIN B] | 11 - 14 mm | 11 - 14 mm | 11 - 14 mm | 11 - 14 mm | – | – | – | – | –
OC(Cn1cncn1)(Cn1cncn1)c1ccc(F)cc1F [FLUCONAZOLE] | – | – | – | – | – | – | – | – | inhibition zone (IZ) [12]: 2.6 - 2.8 cm
C/C(=C(/OCCOc1ccc(Cl)cc1)c1ccc(Cl)cc1Cl)n1ccnc1 [OMOCONAZOLE] | – | – | – | – | – | – | – | – | MIC [13]: ≤ 4 µg/mL
Clc1ccc(CO/N=C(\Cn2ccnc2)c2ccc(Cl)cc2Cl)c(Cl)c1 [OXICONAZOLE] | – | – | – | – | – | – | – | – | MIC [13]: ≤ 4 µg/mL
